Source: US10681909B2, “Herbicidal triazoles” (FMC Corporation, priority 2014, dated 2020)

Assays:
foxtail, giant [1] = test: Test A preemergence; assay type: in vivo, Setaria faberii; settings: Setaria faberi, pre-emergence, 240 h, 0 to 100 scale (0 no effect, 100 complete control), read-out: Plant response rating, Foxtail, Giant
In short: (§1)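 Loam/sand soil mix; compound in non-phytotoxic solvent + surfactant. Pre: directed soil spray right after planting seed. Post: potted plants 2–10 cm, 1–2 leaf stage, sprayed with same formulation.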

pigweed [2] = test: Test A preemergence; assay type: in vivo, Amaranthus retroflexus; settings: Amaranthus retroflexus, pre-emergence, 240 h, 0 to 100 scale (0 no effect, 100 complete control), read-out: Plant response rating, Pigweed
In short: as §1

foxtail, giant [3] = test: Test A postemergence; assay type: in vivo, Setaria faberii; settings: Setaria faberi, post-emergence, 240 h, 0 to 100 scale (0 no effect, 100 complete control), approx. 10 d, read-out: Plant response rating, Foxtail, Giant
In short: as §1

wheat = test: Test A postemergence; assay type: in vivo, Triticum aestivum; settings: Triticum aestivum, post-emergence, 240 h, 0 to 100 scale (0 no effect, 100 complete control), approx. 10 d, read-out: Plant response rating, Wheat
In short: as §1

barnyardgrass [4] = test: Test A preemergence; assay type: in vivo, Echinochloa crus-galli; settings: Echinochloa crus-galli, pre-emergence, 240 h, 0 to 100 scale (0 no effect, 100 complete control), read-out: Plant response rating, Barnyardgrass
In short: as §1

pigweed [5] = test: Test A postemergence; assay type: in vivo, Amaranthus retroflexus; settings: Amaranthus retroflexus, post-emergence, 240 h, 0 to 100 scale (0 no effect, 100 complete control), approx. 10 d, read-out: Plant response rating, Pigweed
In short: as §1

barnyardgrass [6] = test: Test A postemergence; assay type: in vivo, Echinochloa crus-galli; settings: Echinochloa crus-galli, post-emergence, 240 h, 0 to 100 scale (0 no effect, 100 complete control), approx. 10 d, read-out: Plant response rating, Barnyardgrass
In short: as §1

corn = test: Test A postemergence; assay type: in vivo, Zea mays; settings: Zea mays, post-emergence, 240 h, 0 to 100 scale (0 no effect, 100 complete control), approx. 10 d
In short: as §1

Question: Which results are given for `Cn1nc(-c2ccc(F)cc2)nc1Oc1cccc(C(F)(F)F)c1` [Compound 5, 3-(4-fluorophenyl)-1-methyl-5-[3-(trifluoromethyl)phenoxy]-1H-1,2,4-triazole]?
Answer: pest or weed control at 125 g/ha (foxtail, giant [1]; 125 g ai/ha): 60%; pest or weed control at 500 g/ha (foxtail, giant [1]; 500 g ai/ha, approx. 10 d): 90%; pest or weed control at 125 g/ha (pigweed [2]; 125 g ai/ha): 40%; pest or weed control at 500 g/ha (pigweed [2]; 500 g ai/ha, approx. 10 d): 50%; pest or weed control at 125 g/ha (foxtail, giant [3]; 125 g ai/ha): 20%; pest or weed control at 500 g/ha (foxtail, giant [3]; 500 g ai/ha): 70%; plant injury at 125 g/ha (wheat; 125 g ai/ha): 0%; plant injury at 500 g/ha (wheat; 500 g ai/ha): 10%; pest or weed control at 125 g/ha (barnyardgrass [4]; 125 g ai/ha): 0%; pest or weed control at 500 g/ha (barnyardgrass [4]; 500 g ai/ha, approx. 10 d): 20%; pest or weed control at 125 g/ha (pigweed [5]; 125 g ai/ha): 90%; pest or weed control at 500 g/ha (pigweed [5]; 500 g ai/ha): 100%; pest or weed control at 125 g/ha (barnyardgrass [6]; 125 g ai/ha): 10%; pest or weed control at 500 g/ha (barnyardgrass [6]; 500 g ai/ha): 30%; Corn plant response rating (crop injury, 0 = no effect, 100 = complete kill) at 125 g/ha (corn; 125 g ai/ha): 10%; Corn plant response rating (crop injury, 0 = no effect, 100 = complete kill) at 500 g/ha (corn; 500 g ai/ha): 20%
